Measured values published in PMC12749748, “Chemically-induced degradation of the endoplasmic-reticulum stress sensor IRE1 by a VHL-recruiting chimera” (Nature Communications, 2025).

What was measured:
MELK = target: T1, MELK (Homo sapiens, UniProt Q14680); assay: Immunoblot of MELK depletion in AMO1 cells; format: cell-based; settings: additional replicates
T1 construct: endogenous in cells; host or cells: AMO1
Method: Cells were lysed in buffer containing 20 mM HEPES 7.2, 150 mM NaCl, and 1% Triton X-100, supplemented with fresh protease and phosphatase inhibitors (Invitrogen, #78440), cleared by centrifugation at 12,000 × g for 10 min, and analyzed by BCA protein assay (Thermo Fisher Scientific, #23227). Equal protein amounts were loaded, separated by SDS-PAGE, electrotransferred to nitrocellulose membranes using the iBLOT2 system (Invitrogen), and blocked in 5% nonfat milk solution for 60 min. Membranes were probed with primary antibodies at 1:1000 dilution in 5% milk at 4 °C overnight. Signal was detected using appropriate horseradish peroxidase (HRP)-conjugated secondary antibodies at 1:10,000 in 5% milk at room temperature for 1–2 h. Bands were visualized by the Azure 600 western blot imaging system (Azure Biosystems). For in vitro ubiquitination assays performed with Me-Ub, bands were visualized by the Odyssey CLx Imager (LI‑COR) after incubating the blots with the IRDye 800CW (LI-COR) secondary antibodies at 1:10,000 in Intercept Blocking Buffer (LI-COR) at room temperature for 1–2 h. […]
The kinome selectivity of G6374 was assessed at 1 μM for 1 h versus a panel of 220 human kinases (SelectScreen Kinase Profiling Services, Thermo Fisher Scientific). […]

human IRE1.KR = target: T2, human IRE1.KR (Homo sapiens, UniProt O75460); assay: Surface plasmon resonance, binary interaction with IRE1.KR; format: binding; settings: SPR, immobilised IRE1.KR, 20 °C, 1 to 1 kinetic model
T2 construct: Recombinant human IRE1.KR (G547-L977) was purified using an established protocol; His6 (with TEV protease cleavage site) (N, cleaved yes); made in house; host or cells: Sf9
Method: All SPR experiments in this paper were recorded on a Biacore S200 instrument; all protein captures and data collection were at 20 °C.
For binary interactions with G6374: a Xantec SAHC 200 M (streptavidin) chip was inserted into the instrument and primed into running buffer [50 mM HEPES (pH 7.4), 150 mM NaCl, 0.001% Tween 20, 0.2% PEG3350, 0.25 mM TCEP, and 2% DMSO]. Biotinylated human IRE1.KR protein was captured on FC2 to 2-4000 RU, biotinylated VHL in complex with Elongin B (VHL/EloB) was captured on FC4 to 1-2000 RU, data were collected, and all referenced to FC1. Affinity for G6374 was measured using a titration series, injected from low to high with an 8-point, 2-fold dilution dose response with a top concentration of 0.5 μM in both single cycle (single cycle kinetics (SCK)) and multi cycle kinetics (MCK) formats. For MCK experiments, an association time of 45 s and a dissociation time of 200 s with a flow rate of 50 μL/min. For SCK experiments, an association time of 45 s and a dissociation time of 2000 s with a flow rate of 50 μL/min were used. All data were analyzed using Insight software (Cytiva) using a 1 to 1 kinetic binding model.

IRE1:VHL = IRE1:VHL (Homo sapiens, UniProt O75460+P40337); assay: NanoBRET IRE1:VHL interaction, WT IRE1, HEK293T cells; format: cell-based; design: N2731 (HaloTag-VHL); host or cells: HEK293T
Method: 8 × 10^5 293T cells per well were seeded in 6-well plates (Costar, #3516) and incubated at 37 °C, 5% CO2 for 6 h. A mixture of 0.2 µg ERN1 (IRE1)-NanoLuc Fusion Vector (Promega, NV1321), 2 µg HaloTag-VHL Fusion Vector (Promega, N2731), 6 µl FuGENE HD Transfection Reagent (Promega, E2311), and 100 µL Opti-MEM I reduced serum medium (Gibco, #31985062) per well was incubated at room temperature for 20 min before adding to cells. For expression of IRE1 mutants, site-directed mutagenesis was performed using the ERN1-NanoLuc Fusion Vector as the DNA template, and the transfection mixture was prepared in the same way as WT IRE1. After 18 h, cells from 6-well plates were trypsinized, resuspended in Opti-MEM I reduced serum medium, and reseeded into 96-well plates (Costar, #3917), with or without the addition of HaloTag NanoBRET 618 Ligand (Promega, G9801). […] After 2 h of G6374 treatment, NanoBRET Nano-Glo Substrate (Promega, N1571) was added to cells. The 96-well plates were imaged by GloMax Discover Microplate Reader (Promega, GM3000) with the default “BRET: NanoBRET 618” protocol (Donor: 450 BP; Acceptor: 600 LP; Integration: 0.3 s). Data analysis was performed according to the user manual.

IRE1 = IRE1 (Homo sapiens, UniProt O75460); assay: Immunoblot of endogenous IRE1 depletion in KMS27 cells; format: cell-based; design: Immunoblot (IB) analysis of endogenous IRE1 depletion in AMO1 cells; endogenous in cells; host or cells: AMO1, KMS27, H929
Method: Cells were lysed in buffer containing 20 mM HEPES 7.2, 150 mM NaCl, and 1% Triton X-100, supplemented with fresh protease and phosphatase inhibitors (Invitrogen, #78440), cleared by centrifugation at 12,000 × g for 10 min, and analyzed by BCA protein assay (Thermo Fisher Scientific, #23227). Equal protein amounts were loaded, separated by SDS-PAGE, electrotransferred to nitrocellulose membranes using the iBLOT2 system (Invitrogen), and blocked in 5% nonfat milk solution for 60 min. Membranes were probed with primary antibodies at 1:1000 dilution in 5% milk at 4 °C overnight. Signal was detected using appropriate horseradish peroxidase (HRP)-conjugated secondary antibodies at 1:10,000 in 5% milk at room temperature for 1–2 h. Bands were visualized by the Azure 600 western blot imaging system (Azure Biosystems). For in vitro ubiquitination assays performed with Me-Ub, bands were visualized by the Odyssey CLx Imager (LI‑COR) after incubating the blots with the IRDye 800CW (LI-COR) secondary antibodies at 1:10,000 in Intercept Blocking Buffer (LI-COR) at room temperature for 1–2 h.

T2 sequence (O75460 547-977): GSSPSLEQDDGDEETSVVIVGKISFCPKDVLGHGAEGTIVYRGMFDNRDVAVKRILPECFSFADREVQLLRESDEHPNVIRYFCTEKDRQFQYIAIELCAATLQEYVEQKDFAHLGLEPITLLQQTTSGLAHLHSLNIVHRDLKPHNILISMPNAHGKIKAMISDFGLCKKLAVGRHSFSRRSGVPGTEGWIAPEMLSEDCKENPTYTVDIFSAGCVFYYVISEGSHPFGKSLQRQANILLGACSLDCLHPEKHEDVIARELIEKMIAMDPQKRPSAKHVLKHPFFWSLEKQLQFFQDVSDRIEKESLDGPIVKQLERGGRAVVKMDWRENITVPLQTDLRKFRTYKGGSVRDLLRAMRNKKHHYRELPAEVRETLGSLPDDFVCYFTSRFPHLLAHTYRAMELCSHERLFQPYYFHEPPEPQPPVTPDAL
Chain of IRE1 (O75460 19-977): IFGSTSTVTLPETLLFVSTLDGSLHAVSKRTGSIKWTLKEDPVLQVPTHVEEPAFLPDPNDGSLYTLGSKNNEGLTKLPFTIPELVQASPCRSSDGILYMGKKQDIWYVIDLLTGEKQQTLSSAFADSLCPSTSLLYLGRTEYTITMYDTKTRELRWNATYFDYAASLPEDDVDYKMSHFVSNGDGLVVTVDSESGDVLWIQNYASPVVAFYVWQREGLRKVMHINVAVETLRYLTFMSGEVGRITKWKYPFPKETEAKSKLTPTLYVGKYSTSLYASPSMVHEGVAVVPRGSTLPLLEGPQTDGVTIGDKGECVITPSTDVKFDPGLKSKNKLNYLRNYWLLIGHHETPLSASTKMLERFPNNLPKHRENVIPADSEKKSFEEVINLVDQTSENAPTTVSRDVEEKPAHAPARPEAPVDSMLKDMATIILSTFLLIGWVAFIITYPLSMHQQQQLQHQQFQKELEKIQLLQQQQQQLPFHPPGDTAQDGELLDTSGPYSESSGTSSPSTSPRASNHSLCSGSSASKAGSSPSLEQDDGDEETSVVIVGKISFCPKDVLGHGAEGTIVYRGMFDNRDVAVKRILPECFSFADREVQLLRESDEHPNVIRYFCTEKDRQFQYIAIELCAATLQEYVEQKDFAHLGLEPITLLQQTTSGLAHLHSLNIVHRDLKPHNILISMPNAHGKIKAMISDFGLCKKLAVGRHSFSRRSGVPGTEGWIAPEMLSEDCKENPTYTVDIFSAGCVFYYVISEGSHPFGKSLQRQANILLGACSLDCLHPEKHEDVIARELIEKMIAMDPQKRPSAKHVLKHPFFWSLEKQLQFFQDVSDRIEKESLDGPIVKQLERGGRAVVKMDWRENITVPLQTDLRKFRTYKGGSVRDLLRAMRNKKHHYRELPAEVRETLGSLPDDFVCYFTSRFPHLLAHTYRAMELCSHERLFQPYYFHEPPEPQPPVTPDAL
Chain of IRE1:VHL (O75460 19-977): as above
Chain of IRE1:VHL (P40337 whole entry, the tested form may be a part): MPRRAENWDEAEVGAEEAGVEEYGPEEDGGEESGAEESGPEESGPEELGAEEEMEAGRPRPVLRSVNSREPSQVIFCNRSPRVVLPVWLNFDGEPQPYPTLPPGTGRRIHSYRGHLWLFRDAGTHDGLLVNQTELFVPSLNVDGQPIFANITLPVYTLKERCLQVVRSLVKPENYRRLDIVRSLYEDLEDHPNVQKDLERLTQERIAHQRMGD
Chain of IRE1:VHL (Q15369 whole entry partner, the tested form may be a part): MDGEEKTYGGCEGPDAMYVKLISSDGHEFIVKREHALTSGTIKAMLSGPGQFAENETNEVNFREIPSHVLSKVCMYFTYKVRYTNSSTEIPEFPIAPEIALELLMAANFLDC
Chain of IRE1:VHL (Q15370 whole entry partner, the tested form may be a part): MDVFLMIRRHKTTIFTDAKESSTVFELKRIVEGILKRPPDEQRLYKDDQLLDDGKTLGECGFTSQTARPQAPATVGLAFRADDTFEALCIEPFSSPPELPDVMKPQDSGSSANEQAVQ
Chain of IRE1:VHL (Q13617 whole entry partner, the tested form may be a part): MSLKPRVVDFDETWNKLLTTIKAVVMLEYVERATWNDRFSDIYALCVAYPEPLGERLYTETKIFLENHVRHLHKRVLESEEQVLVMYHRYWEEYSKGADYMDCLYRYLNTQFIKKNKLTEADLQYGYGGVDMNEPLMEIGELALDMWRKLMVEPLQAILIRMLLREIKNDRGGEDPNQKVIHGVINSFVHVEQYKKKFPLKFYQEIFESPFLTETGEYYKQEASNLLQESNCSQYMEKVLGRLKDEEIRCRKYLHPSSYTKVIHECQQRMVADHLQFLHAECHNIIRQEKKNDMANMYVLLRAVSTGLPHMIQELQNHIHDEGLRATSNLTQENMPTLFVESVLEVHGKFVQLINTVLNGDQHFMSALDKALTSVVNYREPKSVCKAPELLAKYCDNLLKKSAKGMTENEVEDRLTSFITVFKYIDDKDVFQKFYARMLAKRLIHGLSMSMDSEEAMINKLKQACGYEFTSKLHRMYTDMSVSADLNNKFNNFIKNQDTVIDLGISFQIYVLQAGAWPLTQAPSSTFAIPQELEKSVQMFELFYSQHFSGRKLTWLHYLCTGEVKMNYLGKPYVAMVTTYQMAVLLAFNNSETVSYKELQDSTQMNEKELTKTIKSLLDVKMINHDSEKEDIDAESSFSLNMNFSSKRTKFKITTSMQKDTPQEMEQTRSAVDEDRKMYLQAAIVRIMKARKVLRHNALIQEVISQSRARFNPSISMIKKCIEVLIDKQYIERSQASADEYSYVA
Chain of IRE1:VHL (P62877 whole entry partner, the tested form may be a part): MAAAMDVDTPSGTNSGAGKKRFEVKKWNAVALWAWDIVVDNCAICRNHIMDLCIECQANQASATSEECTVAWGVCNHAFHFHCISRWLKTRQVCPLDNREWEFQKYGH
T1 sequence (Q14680 whole entry): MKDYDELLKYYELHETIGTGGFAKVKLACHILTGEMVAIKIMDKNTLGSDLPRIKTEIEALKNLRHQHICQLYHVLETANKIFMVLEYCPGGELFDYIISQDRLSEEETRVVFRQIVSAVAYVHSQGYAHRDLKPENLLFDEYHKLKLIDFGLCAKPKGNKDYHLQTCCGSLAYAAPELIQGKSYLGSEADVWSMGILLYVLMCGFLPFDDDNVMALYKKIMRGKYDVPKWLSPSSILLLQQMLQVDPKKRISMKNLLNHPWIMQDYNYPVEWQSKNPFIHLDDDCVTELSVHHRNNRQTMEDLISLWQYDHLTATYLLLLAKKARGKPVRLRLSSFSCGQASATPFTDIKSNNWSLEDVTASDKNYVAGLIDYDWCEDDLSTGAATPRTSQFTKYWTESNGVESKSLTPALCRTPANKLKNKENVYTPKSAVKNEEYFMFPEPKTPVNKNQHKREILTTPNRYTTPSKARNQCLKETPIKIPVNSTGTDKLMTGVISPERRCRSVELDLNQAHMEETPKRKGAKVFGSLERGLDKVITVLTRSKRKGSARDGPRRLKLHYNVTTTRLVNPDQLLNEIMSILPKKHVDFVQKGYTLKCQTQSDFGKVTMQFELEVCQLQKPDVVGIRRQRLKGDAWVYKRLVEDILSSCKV

In the case of `Cc1ncsc1-c1ccc(CNC(=O)[C@@H]2C[C@@H](O)CN2C(=O)[C@@H](NC(=O)CCCCN2CCN([C@H]3CC[C@H](Nc4ncc5ccc(=O)n(C(C)C)c5n4)CC3)CC2)C(C)(C)C)cc1` [G6374], the “depletion of MELK” value (MELK) is reported as “MELK is not depleted”, the Kd (human IRE1.KR) is reported as 0.56 nM and the kd (human IRE1.KR) is reported as 0.0025 s⁻¹. For the same compound, the kon (human IRE1.KR; read-out: ka) was 4.95e+06 M⁻¹ s⁻¹, the EC50 (IRE1:VHL) was 110 ± 30 nM and the “EC50 of IRE1:VHL interaction (NanoBRET ratio)” value (IRE1:VHL; WT IRE1, HEK293T, estimated) was 110 nM. The Dmax (IRE1; KMS-27, immunoblot quantification) was 98% and the DC50 (IRE1; immunoblot quantification) was 130 nM.
